Experimental data published in PubChem BioAssay (NCI).
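Each compound was tested at five concentrations against cells in 96-well plates for 48 hours. Definition used: TGI = concentration required for complete inhibition of growth.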

Experiments:
Experiment in all cases: inhibition of tumour cell growth, NCI panel, 48 h
HCT-15 colon = system: HCT-15 colon
SK-OV-3 ovarian = system: SK-OV-3 ovarian
MOLT-4 leukemia = system: MOLT-4 leukemia
KM12 colon = system: KM12 colon
SF-268 CNS = system: SF-268 CNS
SN12C renal = system: SN12C renal
HOP-92 NSCLC = system: HOP-92 NSCLC
EKVX NSCLC = system: EKVX NSCLC
IGROV1 ovarian = system: IGROV1 ovarian
OVCAR-3 ovarian = system: OVCAR-3 ovarian
NCI-H23 lung = system: NCI-H23 lung
SNB-19 CNS = system: SNB-19 CNS
HCT-116 colon = system: HCT-116 colon
A549 NSCLC = system: A549 NSCLC
SF-539 CNS = system: SF-539 CNS

SMILES | TGI (HCT-15 colon) [µM] | TGI (SK-OV-3 ovarian) [µM] | TGI (MOLT-4 leukemia) [µM] | TGI (KM12 colon) [µM] | TGI (SF-268 CNS) [µM] | TGI (SN12C renal) [µM] | TGI (HOP-92 NSCLC) [µM] | TGI (EKVX NSCLC) [µM] | TGI (IGROV1 ovarian) [µM] | TGI (OVCAR-3 ovarian) [µM] | TGI (NCI-H23 lung) [µM] | TGI (SNB-19 CNS) [µM] | TGI (HCT-116 colon) [µM] | TGI (A549 NSCLC) [µM] | TGI (SF-539 CNS) [µM]
CC(C)c1nc2c(Cl)c3ncccc3cc2[nH]c1=O | > 100 | > 100 | > 100 | > 100 | > 100 | > 100 | > 100 | > 100 | > 100 | > 100 | > 100 | > 100 | > 100 | > 100 | > 100
COC(=O)/C=C(/C(=O)OC)c1c(C)cc2c(C)cc(C)cc(C)c1-2 | 18.8 | 99.5 | > 100 | > 58.2 | > 65.7 | 40.2 | > 100 | > 95.3 | > 100 | 38.3 | > 81.1 | > 100 | 18.5 | > 84.5 | 26.7
CCSC(=O)/C=C1\CN(C(=O)OC(C)(C)C)C1C(=O)OC(C)(C)C (stereo not given) | 3.93 | 28.2 | 4.18 | 12.3 | 21.6 | 7.06 | 8.4 | 26 | 14.6 | 6.13 | 8.7 | 25.5 | 3 | 26.4 | 7.51
Fc1ccc(Nc2nnc(-c3ccccn3)s2)cc1 | > 100 | > 100 | > 100 | > 100 | > 100 | > 100 | > 100 | > 100 | > 100 | > 100 | > 100 | > 100 | > 100 | > 100 | > 100
CCN1C[C@]2(C)CC[C@H](OCc3ccccc3)C34C5C[C@@H]6CC[C@](O)(C(C[C@@H]32)C14)C5[C@H]6OCc1ccccc1 (stereo not given in full) | > 100 | > 100 | > 100 | > 100 | > 100 | > 100 | > 100 | > 100 | > 100 | > 100 | > 100 | > 100 | > 100 | > 100 | > 100
O/N=C1\CCc2cc3c(cc21)CCC3 | > 100 | > 100 | > 100 | > 100 | > 100 | > 100 | > 100 | > 100 | > 100 | > 100 | > 100 | > 100 | > 100 | > 100 | > 100
Cc1ccc(/C(O)=C/c2nc3ccccc3[nH]c2=O)c(C)c1 | > 100 | 33.6 | > 100 | > 61.5 | 25 | 69.2 | 16.9 | 56.1 | > 59.9 | > 73.7 | > 65 | > 45.9 | 55.8 | > 58.8 | 31.6
CO/N=C(/C(=O)OC)c1ccccc1COc1cccc(C(F)(F)F)c1 | > 100 | > 100 | 34.4 | 92 | > 100 | > 100 | > 100 | 43.2 | > 100 | 93.7 | > 100 | > 100 | > 100 | > 100 | > 100
C1=NCCNCCN=Cc2ccccc2OCc2cccc(n2)COc2ccccc21 | 24.8 | > 100 | > 82 | > 62.2 | > 96 | > 100 | > 100 | > 100 | > 100 | > 65.3 | > 52.9 | > 100 | > 100 | > 100 | 11.1
O=C(NCCN1CCCC1)c1cn2c(ccc3sc4ccccc4c(=O)c32)n1 | 24.4 | 30 | 7.42 | 37.5 | 30.1 | 26.9 | 30.1 | 34.8 | 25 | 29.1 | 32.4 | 31.2 | 8.57 | 24.5 | 30.2
COC(=O)c1c(O)ccc2c1c1c(n2-c2ccc(OC)cc2)C(=O)c2ccccc2C1=O | > 100 | 39.2 | > 100 | 77.8 | 32.4 | > 100 | 36.7 | 39.6 | 91.6 | 65.2 | > 100 | 44.7 | 30.6 | 32.2 | 29.9
